Measured values taken from the supplement of paper PMC11061612.

Key:
Assay in all cases: Bliss excess, mean over the matrix (fraction); higher = more synergy
[1] = tested on: 22RV1 (Prostate Carcinoma)
How it was run: (§1)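 Cell lines grown in DMEM/F12 or RPMI with 10% FBS were plated in 1536-well plates and held 24 hours at 37°C, 5% CO2 before 72 hours of exposure to two-drug dose matrices, with DMSO typically at 0.2%. CellTiter-Glo 2.0 luminescence gave viability, which was converted to inhibition. Vehicle wells were set to 0 and blank wells to 1. Combination Emax is the second-highest inhibition in the matrix, and Bliss excess is the observed combination effect minus the expected EA + EB − EA·EB, where EA and EB are the single-agent effects.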

[2] = tested on: 769-P (Kidney Carcinoma)
How it was run: as §1

[3] = tested on: A101D (Melanoma)
How it was run: as §1

[4] = tested on: A204 (Rhabdomyosarcoma)
How it was run: as §1

[5] = tested on: A253 (Head and Neck Carcinoma)
How it was run: as §1

[6] = tested on: A2780 (Ovarian Carcinoma)
How it was run: as §1

[7] = tested on: AU565 (Breast Carcinoma)
How it was run: as §1

[8] = tested on: CESS (Acute Myeloid Leukemia)
How it was run: as §1

[9] = tested on: CGTH-W-1 (Thyroid Gland Carcinoma)
How it was run: as §1

[10] = tested on: GCT (Other Solid Carcinomas)
How it was run: as §1

[11] = tested on: HT55 (Colorectal Carcinoma)
How it was run: as §1

[12] = tested on: JVM-2 (B-Cell Non-Hodgkin's Lymphoma)
How it was run: as §1

[13] = tested on: LU-165 (Small Cell Lung Carcinoma)
How it was run: as §1

[14] = tested on: MDA-MB-436 (Breast Carcinoma)
How it was run: as §1

[15] = tested on: NCI-H2087 (Lung Adenocarcinoma)
How it was run: as §1

[16] = tested on: NCI-H2228 (Lung Adenocarcinoma)
How it was run: as §1

[17] = tested on: NCI-H716 (Colorectal Carcinoma)
How it was run: as §1

[18] = tested on: SW620 (Colorectal Carcinoma)
How it was run: as §1

[19] = tested on: UACC-812 (Breast Carcinoma)
How it was run: as §1

[20] = tested on: huH-1 (Hepatocellular Carcinoma)
How it was run: as §1

SMILES	Bliss excess [1]	Bliss excess [2]	Bliss excess [3]	Bliss excess [4]	Bliss excess [5]	Bliss excess [6]	Bliss excess [7]	Bliss excess [8]	Bliss excess [9]	Bliss excess [10]	Bliss excess [11]	Bliss excess [12]	Bliss excess [13]	Bliss excess [14]	Bliss excess [15]	Bliss excess [16]	Bliss excess [17]	Bliss excess [18]	Bliss excess [19]	Bliss excess [20]
COc1cccc(OCCCN)c1-c1cc(Nc2cnc(C#N)cn2)n[nH]1 [Prexasertib] + Cc1cc2ncnn2cc1Nc1ncc2c(n1)n(C1CCOCC1)c(=O)n2C [AZD7648] (first compound max 1 µM, 7x7, partner max 10 µM)	-0.0316	-0.038	0.0232	-0.091	-0.0228	0.0097	0.0086	0.0409	-0.0455	0.0365	-0.0102	0.0171	-0.0422	-0.0552	0.008	-0.0487	0.0577	-0.0177	-0.0402	-0.0226
CCN(CCO)CCCOc1ccc2c(Nc3cc(CC(=O)Nc4cccc(F)c4)[nH]n3)ncnc2c1 [AZD2811] + O=C(c1cc(Cc2n[nH]c(=O)c3ccccc23)ccc1F)N1CCN(C(=O)C2CC2)CC1 [Olaparib] (first compound max 1 µM, 7x7, partner max 10 µM)	0.0017	-0.018	-0.0005	0.0034	0.0485	0.0453	-0.011	0.0591	0.008	0.0585	0.0248	-0.125	-0.0454	-0.0533	0.0128	-0.021	0.0047	0.0318	0.0076	-0.0014
Cc1c2c(nn1C)CSCc1cc(n(C)n1)CSc1cc(c3ccccc3c1)OCCCc1c(C(=O)O)n(C)c3c-2c(Cl)ccc13 [AZD5991] + CC1(C)CCC(CN2CCN(c3ccc(C(=O)NS(=O)(=O)c4ccc(NCC5CCOCC5)c([N+](=O)[O-])c4)c(Oc4cnc5[nH]ccc5c4)c3)CC2)=C(c2ccc(Cl)cc2)C1 [Venetoclax] (first compound max 1 µM, 7x7, partner max 1 µM)	-0.0149	-0.0328	0.0076	-0.0226	0.0088	0.0777	0.0115	0.0276	-0.012	-0.0272	-0.0244	0.0109	-0.014	-0.0513	-0.0304	-0.0122	-0.0436	-0.037	0.0196	-0.0534
Cn1cnc2c(F)c(Nc3ccc(Br)cc3Cl)c(C(=O)NOCCO)cc21 [Selumetinib] + C[C@@H]1COCCN1C2=NC(=NC(=C2)C3(CC3)[S@](=N)(=O)C)C4=C5C=CNC5=NC=C4 [AZD6738] (first compound max 10 µM, 7x7, partner max 10 µM)	0.0144	-0.0122	-0.0548	-0.0363	-0.0229	0.0429	-0.0014	-0.0205	-0.0232	0.0294	0.004	-0.0344	-0.0284	-0.0064	-0.0057	-0.0098	-0.0341	0.0587	-0.0397	-0.0551
